Among the data in patent US20250136586A1, “Substituted 7-(Pyrimidin-4-yl)Quinolin-4(1H)-One Compounds as Cyclin Dependent Kinase Inhibitors” (BeiGene, Ltd., priority 2022, published 2025) are IC50 values, retold here.

The target of one test is CDK4/Cyclin D1 (Homo sapiens (Human), UniProt P11802). Description: TR-FRET kinase inhibition assay, CDK4/Cyclin D1. It counts as biochemical. The note with it: 1 mM ATP, 0.15 μM Rb (Ser780)-biotin substrate, read-out: CDK4D1 IC50. In short, it runs like this:
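Kinase was preincubated with compound for 60 min at room temperature, then reacted with ATP and Rb (Ser780)-biotin substrate for 120 min. IC50 came from a four-parameter logistic fit.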

In the next test the target is CDK6/Cyclin D3 (Homo sapiens (Human), UniProt Q00534). Description: TR-FRET kinase inhibition assay, CDK6/Cyclin D3. It counts as biochemical. The following applies: 1 mM ATP, 0.15 μM Rb (Ser780)-biotin substrate, read-out: CDK6D3 IC50. In short, it runs like this:
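Kinase preincubated 60 min at room temperature with 0–10 μM compound; reaction started with 1 mM ATP and 0.15 μM Rb (Ser780)-biotin, run 120 min at room temperature in HEPES pH 7.0, 50 mM MgCl2. pRb detected by TR-FRET (665/620 nm ratio); IC50 from four-parameter logistic fit.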

CDK4/Cyclin D1, sequence (P11802 whole entry): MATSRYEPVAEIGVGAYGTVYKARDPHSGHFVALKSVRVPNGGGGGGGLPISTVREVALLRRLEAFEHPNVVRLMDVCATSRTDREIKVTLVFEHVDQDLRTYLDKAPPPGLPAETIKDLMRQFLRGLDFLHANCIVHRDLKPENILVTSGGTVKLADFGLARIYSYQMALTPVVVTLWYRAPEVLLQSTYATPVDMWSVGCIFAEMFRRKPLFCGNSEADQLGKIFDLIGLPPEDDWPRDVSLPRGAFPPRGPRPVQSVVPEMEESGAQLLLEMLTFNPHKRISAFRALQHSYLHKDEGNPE
CDK4/Cyclin D1, sequence (P24385 whole entry partner): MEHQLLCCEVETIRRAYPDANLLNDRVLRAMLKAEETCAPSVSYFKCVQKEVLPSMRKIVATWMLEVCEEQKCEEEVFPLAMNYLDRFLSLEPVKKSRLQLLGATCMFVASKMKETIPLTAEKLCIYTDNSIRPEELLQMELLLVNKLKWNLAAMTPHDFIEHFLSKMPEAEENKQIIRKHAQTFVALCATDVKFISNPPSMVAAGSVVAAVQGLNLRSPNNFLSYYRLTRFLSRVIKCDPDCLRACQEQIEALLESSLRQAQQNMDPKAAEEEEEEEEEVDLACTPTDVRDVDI
CDK6/Cyclin D3, sequence (Q00534 whole entry): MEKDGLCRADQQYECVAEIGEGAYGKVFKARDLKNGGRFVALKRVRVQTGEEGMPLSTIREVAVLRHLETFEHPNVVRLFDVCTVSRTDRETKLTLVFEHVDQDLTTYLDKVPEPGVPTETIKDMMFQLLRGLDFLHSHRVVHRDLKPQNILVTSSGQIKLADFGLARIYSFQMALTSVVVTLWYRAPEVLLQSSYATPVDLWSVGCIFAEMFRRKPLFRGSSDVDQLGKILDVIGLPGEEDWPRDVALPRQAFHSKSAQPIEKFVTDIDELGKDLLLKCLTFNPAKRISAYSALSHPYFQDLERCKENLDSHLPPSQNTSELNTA
CDK6/Cyclin D3, sequence (P30281 whole entry partner): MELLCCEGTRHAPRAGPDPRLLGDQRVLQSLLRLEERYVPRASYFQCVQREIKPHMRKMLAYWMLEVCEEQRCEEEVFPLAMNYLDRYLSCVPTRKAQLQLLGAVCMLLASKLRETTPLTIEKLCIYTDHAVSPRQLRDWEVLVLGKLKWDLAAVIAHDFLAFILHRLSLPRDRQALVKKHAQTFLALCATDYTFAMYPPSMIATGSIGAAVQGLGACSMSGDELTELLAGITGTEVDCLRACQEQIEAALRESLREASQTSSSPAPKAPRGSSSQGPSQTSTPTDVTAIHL

For the compound `CC(C)n1c(CN2CCC(O)CC2)cc(=O)c2ccc(-c3nc(N[C@@H]4CCOC[C@H]4O)ncc3F)cc21` [Example 39, 7-(5-fluoro-2-(((3S,4R)-3-hydroxytetrahydro-2H-pyran-4-yl)amino)pyrimidin-4-yl)-2-((4-hydroxypiperidin-1-yl)methyl)-1-isopropylquinolin-4(1H)-one], the IC50 (commonly the concentration at which inhibition is half-maximal) on CDK4/Cyclin D1 is 24 nM; on CDK6/Cyclin D3 it was 744 nM.

Consider `CC(C)n1c(CN2CCO[C@@H](C)C2)cc(=O)c2ccc(-c3nc(N[C@@H]4CCOC[C@H]4O)ncc3F)cc21` [Example 62, 7-(5-fluoro-2-(((3S,4R)-3-hydroxytetrahydro-2H-pyran-4-yl)amino)pyrimidin-4-yl)-1-isopropyl-2-(((S)-2-methylmorpholino)methyl)quinolin-4(1H)-one], for which the IC50 at CDK4/Cyclin D1 is 17 nM; at CDK6/Cyclin D3, 255 nM.

For the compound `Cc1c(CN[C@@H]2CCOC2)n(C(C)C)c2cc(-c3nc(N[C@@H]4CCOC[C@H]4O)ncc3F)ccc2c1=O` [Example 112, 7-(5-fluoro-2-(((3S,4R)-3-hydroxytetrahydro-2H-pyran-4-yl)amino)pyrimidin-4-yl)-1-isopropyl-3-methyl-2-((((R)-tetrahydrofuran-3-yl)amino)methyl)quinolin-4(1H)-one], the IC50 at CDK4/Cyclin D1 is 15 nM; at CDK6/Cyclin D3, 615 nM.

In the case of `CC(C)n1c(CN[C@H]2C[C@@H](F)C2)cc(=O)c2ccc(-c3nc(N[C@@H]4CCOC[C@H]4O)ncc3F)cc21` [Example 64, 7-(5-fluoro-2-(((3S,4R)-3-hydroxytetrahydro-2H-pyran-4-yl)amino)pyrimidin-4-yl)-2-((((1s,3S)-3-fluorocyclobutyl)amino)methyl)-1-isopropylquinolin-4(1H)-one], the results for the IC50 on CDK4/Cyclin D1 and on CDK6/Cyclin D3 were 26 nM and 702 nM, respectively.

`CC(C)n1c(CN2C[C@@H](O)[C@H](F)C2)cc(=O)c2ccc(-c3nc(N[C@@H]4CCOC[C@H]4O)ncc3F)cc21` [Example 46, 7-(5-fluoro-2-(((3S,4R)-3-hydroxytetrahydro-2H-pyran-4-yl)amino)pyrimidin-4-yl)-2-(((3R,4R)-3-fluoro-4-hydroxypyrrolidin-1-yl)methyl)-1-isopropylquinolin-4(1H)-one]: the IC50 on CDK4/Cyclin D1 came out at 12 nM; at CDK6/Cyclin D3, 480 nM.

`Cc1cc(=O)c2ccc(-c3nc(N[C@@H]4CCOC[C@H]4O)ncc3F)cc2n1C1CCCC1` [Example 10, 1-cyclopentyl-7-(5-fluoro-2-(((3S,4R)-3-hydroxytetrahydro-2H-pyran-4-yl)amino)pyrimidin-4-yl)-2-methylquinolin-4(1H)-one]: the IC50 at CDK4/Cyclin D1 stood at 40 nM; on CDK6/Cyclin D3, 1440 nM.

With `CC(C)n1c(CN2C[C@@H](F)[C@@H](O)C2)cc(=O)c2ccc(-c3nc(N[C@@H]4CCOC[C@H]4O)ncc3F)cc21` [Example 45, 7-(5-fluoro-2-(((3S,4R)-3-hydroxytetrahydro-2H-pyran-4-yl)amino)pyrimidin-4-yl)-2-(((3R,4S)-3-fluoro-4-hydroxypyrrolidin-1-yl)methyl)-1-isopropylquinolin-4(1H)-one], the figures for the IC50 at CDK4/Cyclin D1 and on CDK6/Cyclin D3 were 21 nM and 651 nM, respectively.

`CCc1cc(=O)c2ccc(-c3nc(N[C@@H]4CCOC[C@H]4O)ncc3F)cc2n1C(C)C` [Example 55, 2-ethyl-7-(5-fluoro-2-(((3S,4R)-3-hydroxytetrahydro-2H-pyran-4-yl)amino)pyrimidin-4-yl)-1-isopropylquinolin-4(1H)-one]: the values for the IC50 on CDK4/Cyclin D1 and at CDK6/Cyclin D3 were 15 nM and 345 nM, respectively.

For the compound `Cc1c(CN2CCOCC2)n(C(C)C)c2cc(-c3nc(N[C@@H]4CCOC[C@H]4O)ncc3F)ccc2c1=O` [Example 58, 7-(5-fluoro-2-(((3S,4R)-3-hydroxytetrahydro-2H-pyran-4-yl)amino)pyrimidin-4-yl)-1-isopropyl-3-methyl-2-(morpholinomethyl)quinolin-4(1H)-one], the IC50 at CDK4/Cyclin D1 stood at 3.4 nM; on CDK6/Cyclin D3 it was 78.2 nM.

As for `CC(C)n1c(CN2CC[C@H](F)C2)cc(=O)c2ccc(-c3nc(N[C@@H]4CCOC[C@H]4O)ncc3F)cc21` [Example 27, 7-(5-fluoro-2-(((3S,4R)-3-hydroxytetrahydro-2H-pyran-4-yl)amino)pyrimidin-4-yl)-2-(((S)-3-fluoropyrrolidin-1-yl)methyl)-1-isopropylquinolin-4(1H)-one], the figures for the IC50 at CDK4/Cyclin D1 and at CDK6/Cyclin D3 were 5.7 nM and 148 nM, respectively.

With `COc1cn(C(C)C)c2cc(-c3nc(N[C@@H]4CCOC[C@H]4O)ncc3F)ccc2c1=O` [Example 8, 7-(5-fluoro-2-(((3S,4R)-3-hydroxytetrahydro-2H-pyran-4-yl)amino)pyrimidin-4-yl)-1-isopropyl-3-methoxyquinolin-4(11H)-one], the results for the IC50 at CDK4/Cyclin D1 and at CDK6/Cyclin D3 were 162 nM and 1780 nM, respectively.

`CC(C)n1c(CN2CCC[C@H](F)C2)cc(=O)c2ccc(-c3nc(N[C@@H]4CCOC[C@H]4O)ncc3F)cc21` [Example 69, 7-(5-fluoro-2-(((3S,4R)-3-hydroxytetrahydro-2H-pyran-4-yl)amino)pyrimidin-4-yl)-2-(((S)-3-fluoropiperidin-1-yl)methyl)-1-isopropylquinolin-4(1H)-one]: the IC50 came out at 21 nM at CDK4/Cyclin D1 and 693 nM at CDK6/Cyclin D3.

As to `CC(C)n1c(CN[C@H]2CCOC2)cc(=O)c2ccc(-c3nc(N[C@@H]4CCOC[C@H]4O)ncc3F)cc21` [Example 67, 7-(5-fluoro-2-(((3S,4R)-3-hydroxytetrahydro-2H-pyran-4-yl)amino)pyrimidin-4-yl)-1-isopropyl-2-((((S)-tetrahydrofuran-3-yl)amino)methyl)quinolin-4(1H)-one], the IC50 was found to be 21 nM on CDK4/Cyclin D1 and 483 nM on CDK6/Cyclin D3.

`CC(C)n1c(CN2C[C@@H](O)[C@@H](F)C2)cc(=O)c2ccc(-c3nc(N[C@@H]4CCOC[C@H]4O)ncc3F)cc21` [Example 31, 7-(5-fluoro-2-(((3S,4R)-3-hydroxytetrahydro-2H-pyran-4-yl)amino)pyrimidin-4-yl)-2-(((3S,4R)-3-fluoro-4-hydroxypyrrolidin-1-yl)methyl)-1-isopropylquinolin-4(1H)-one]: the values for the IC50 at CDK4/Cyclin D1 and at CDK6/Cyclin D3 were 13 nM and 481 nM, respectively.

With `CC(C)n1c(CN2CC(F)C2)cc(=O)c2ccc(-c3nc(N[C@@H]4CCOC[C@H]4O)ncc3F)cc21` [Example 74, 7-(5-fluoro-2-(((3S,4R)-3-hydroxytetrahydro-2H-pyran-4-yl)amino)pyrimidin-4-yl)-2-((3-fluoroazetidin-1-yl)methyl)-1-isopropylquinolin-4(1H)-one], the IC50 was 30 nM on CDK4/Cyclin D1 and 810 nM on CDK6/Cyclin D3.

Regarding `CC(C)n1c(CN2CCC[C@@H](F)C2)cc(=O)c2ccc(-c3nc(N[C@@H]4CCOC[C@H]4O)ncc3F)cc21` [Example 98, 7-(5-fluoro-2-(((3S,4R)-3-hydroxytetrahydro-2H-pyran-4-yl)amino)pyrimidin-4-yl)-2-(((R)-3-fluoropiperidin-1-yl)methyl)-1-isopropylquinolin-4(1H)-one], the IC50 stood at 8.6 nM on CDK4/Cyclin D1 and 370 nM at CDK6/Cyclin D3.

In the case of `CC(C)n1c(CN2CCOCC2)cc(=O)c2ccc(-c3nc(N[C@@H]4CCOC[C@H]4O)ncc3F)cc21` [Example 25, 7-(5-fluoro-2-(((3S,4R)-3-hydroxytetrahydro-2H-pyran-4-yl)amino)pyrimidin-4-yl)-1-isopropyl-2-(morpholinomethyl)quinolin-4(1H)-one], the figures for the half-maximal inhibitory concentration (IC50) at CDK4/Cyclin D1 and at CDK6/Cyclin D3 were 8.2 nM and 139 nM, respectively.

As for `CC(C)n1c(CN2CCC3(CCCO3)C2)cc(=O)c2ccc(-c3nc(N[C@@H]4CCOC[C@H]4O)ncc3F)cc21` (stereo partly drawn) [Example 91, 2-((1-oxa-7-azaspiro[4.4]nonan-7-yl)methyl)-7-(5-fluoro-2-(((3S,4R)-3-hydroxytetrahydro-2H-pyran-4-yl)amino)pyrimidin-4-yl)-1-isopropylquinolin-4(1H)-one], the IC50 worked out at 24 nM at CDK4/Cyclin D1 and 1060 nM at CDK6/Cyclin D3.

In the case of `CC(C)n1c(CN2CCO[C@H](C)C2)cc(=O)c2ccc(-c3nc(N[C@@H]4CCOC[C@H]4O)ncc3F)cc21` [Example 18, 7-(5-fluoro-2-(((3S,4R)-3-hydroxytetrahydro-2H-pyran-4-yl)amino)pyrimidin-4-yl)-1-isopropyl-2-(((R)-2-methylmorpholino)methyl)quinolin-4(1H)-one], the values for the IC50 on CDK4/Cyclin D1 and at CDK6/Cyclin D3 were 27 nM and 1210 nM, respectively.

Consider `Cc1c(CN2CCC(F)(F)CC2)n(C(C)C)c2cc(-c3nc(N[C@@H]4CCOC[C@H]4O)ncc3F)ccc2c1=O` [Example 121, 2-((4,4-difluoropiperidin-1-yl)methyl)-7-(5-fluoro-2-(((3S,4R)-3-hydroxytetrahydro-2H-pyran-4-yl)amino)pyrimidin-4-yl)-1-isopropyl-3-methylquinolin-4(1H)-one], for which the IC50 came to 4.7 nM on CDK4/Cyclin D1 and 113 nM at CDK6/Cyclin D3.

As to `CC(C)n1c(CN2[C@H](C)COC[C@@H]2C)cc(=O)c2ccc(-c3nc(N[C@@H]4CCOC[C@H]4O)ncc3F)cc21` [Example 107, 2-(((3R,5S)-3,5-dimethylmorpholino)methyl)-7-(5-fluoro-2-(((3S,4R)-3-hydroxytetrahydro-2H-pyran-4-yl)amino)pyrimidin-4-yl)-1-isopropylquinolin-4(1H)-one], the IC50 is 7.4 nM on CDK4/Cyclin D1 and 340 nM at CDK6/Cyclin D3.

As for `CC(C)n1c(CNC(C)(C)C)cc(=O)c2ccc(-c3nc(N[C@@H]4CCOC[C@H]4O)ncc3F)cc21` [Example 75, 2-((tert-butylamino)methyl)-7-(5-fluoro-2-(((3S,4R)-3-hydroxytetrahydro-2H-pyran-4-yl)amino)pyrimidin-4-yl)-1-isopropylquinolin-4(1H)-one], the IC50 at CDK4/Cyclin D1 worked out at 21 nM; at CDK6/Cyclin D3 it was 525 nM.
